Test results as given in the NIST ThermoML archive (doi:10.1021/acs.jced.5b00806).
± gives the expanded uncertainty stated by the source.

Assays:
[1] = Liquid; for mass density: 101.33 kPa, Pycnometric method; for vapor or sublimation pressure: Langmuir
[2] = wn = mass fraction of the nth substance listed; conditions: 98 kPa, Liquid, Capillary tube (Ostwald / Ubbelohde) method

COP(=O)([O-])OC.Cn1cc[n+](C)c1 [1,3-dimethylimidazolium dimethylphosphate]
[1]
Conditions	mass density [kg/m3]
293.2 K	1260 ± 3
303.2 K	1253 ± 3
313.2 K	1246 ± 3
323.2 K	1239 ± 3
333.2 K	1232 ± 3
343.2 K	1225 ± 3
353.2 K	1218 ± 3
363.2 K	1211 ± 3

COP(=O)([O-])OC.Cn1cc[n+](C)c1 [1,3-dimethylimidazolium dimethylphosphate] + O
kinematic viscosity [m2/s], [2]
Conditions	w2 = 0.0031	w2 = 0.0085	w2 = 0.019	w2 = 0.0237	w2 = 0.0341	w2 = 0.0493	w2 = 0.0587	w2 = 0.0655
303.2 K	0.000137 ± 3.8e-06	0.000128 ± 3.6e-06	0.000114 ± 3.1e-06	0.000107 ± 2.9e-06	9.53e-05 ± 2.6e-06	7.95e-05 ± 2.3e-06	7.22e-05 ± 2.1e-06	6.73e-05 ± 2e-06
313.2 K	7.79e-05 ± 2.7e-06	7.35e-05 ± 2.4e-06	6.62e-05 ± 2.2e-06	6.27e-05 ± 2.2e-06	5.63e-05 ± 2e-06	4.77e-05 ± 1.9e-06	4.37e-05 ± 1.8e-06	4.09e-05 ± 1.8e-06
323.2 K	4.84e-05 ± 1.9e-06	4.59e-05 ± 1.8e-06	4.18e-05 ± 1.7e-06	3.98e-05 ± 1.7e-06	3.6e-05 ± 1.7e-06	3.09e-05 ± 1.6e-06	2.85e-05 ± 1.6e-06	2.68e-05 ± 1.6e-06
333.2 K	3.22e-05 ± 1.6e-06	3.07e-05 ± 1.6e-06	2.81e-05 ± 1.6e-06	2.69e-05 ± 1.6e-06	2.45e-05 ± 1.6e-06	2.13e-05 ± 1.6e-06	1.97e-05 ± 1.5e-06	1.86e-05 ± 1.5e-06
343.2 K	2.27e-05 ± 1.6e-06	2.17e-05 ± 1.5e-06	2e-05 ± 1.5e-06	1.92e-05 ± 1.5e-06	1.75e-05 ± 1.5e-06	1.53e-05 ± 1.5e-06	1.43e-05 ± 1.5e-06	1.35e-05 ± 1.5e-06
353.2 K	1.67e-05 ± 1.5e-06	1.6e-05 ± 1.5e-06	1.48e-05 ± 1.5e-06	1.42e-05 ± 1.5e-06	1.31e-05 ± 1.5e-06	1.15e-05 ± 1.5e-06	1.07e-05 ± 1.5e-06	1.02e-05 ± 1.5e-06
363.2 K	1.27e-05 ± 1.5e-06	1.22e-05 ± 1.5e-06	1.17e-05 ± 1.5e-06	1.09e-05 ± 1.5e-06	1.01e-05 ± 1.5e-06	8.9e-06 ± 1.5e-06	8.5e-06 ± 1.5e-06	8e-06 ± 1.5e-06

CCCCn1cc[n+](C)c1.F[B-](F)(F)F [1-butyl-3-methylimidazolium tetrafluoroborate]
[1]
Conditions	vapor or sublimation pressure [kPa]
396.3 K	7.2e-10
403.7 K	9.9e-10
412.1 K	2.3e-09
413.6 K	1.8e-09
415.4 K	2.8e-09
421.6 K	4.3e-09
424.9 K	6.3e-09
437.3 K	1.9e-08
437.6 K	1.5e-08
446.4 K	3.7e-08
447.3 K	4e-08
447.7 K	3.9e-08
457.2 K	8.3e-08
457.5 K	8.7e-08
464.7 K	1.5e-07
465 K	1.7e-07
465.5 K	1.6e-07
